Measurements taken from paper PMC3870299, “Comparative genomics and functional analysis of rhamnose catabolic pathways and regulons in bacteria” (Frontiers in Microbiology, 2013).

Legend:
Bs_RhaEW = target: T1, Bs_RhaEW (Bacillus subtilis, UniProt P40747); assay: coupled NADH detection at […] nm; format: biochemical; settings: substrate made in situ from L-Rha by Ec_RhaA and Tm_RhaB; NAD+ 2.5 mM; Zn2+; pH 7.5; 25 C
T1 construct: gene yuxG; full-length, N-terminal His6 tag, expressed in E. coli, Ni-NTA purified
T1 sequence (P40747 whole entry): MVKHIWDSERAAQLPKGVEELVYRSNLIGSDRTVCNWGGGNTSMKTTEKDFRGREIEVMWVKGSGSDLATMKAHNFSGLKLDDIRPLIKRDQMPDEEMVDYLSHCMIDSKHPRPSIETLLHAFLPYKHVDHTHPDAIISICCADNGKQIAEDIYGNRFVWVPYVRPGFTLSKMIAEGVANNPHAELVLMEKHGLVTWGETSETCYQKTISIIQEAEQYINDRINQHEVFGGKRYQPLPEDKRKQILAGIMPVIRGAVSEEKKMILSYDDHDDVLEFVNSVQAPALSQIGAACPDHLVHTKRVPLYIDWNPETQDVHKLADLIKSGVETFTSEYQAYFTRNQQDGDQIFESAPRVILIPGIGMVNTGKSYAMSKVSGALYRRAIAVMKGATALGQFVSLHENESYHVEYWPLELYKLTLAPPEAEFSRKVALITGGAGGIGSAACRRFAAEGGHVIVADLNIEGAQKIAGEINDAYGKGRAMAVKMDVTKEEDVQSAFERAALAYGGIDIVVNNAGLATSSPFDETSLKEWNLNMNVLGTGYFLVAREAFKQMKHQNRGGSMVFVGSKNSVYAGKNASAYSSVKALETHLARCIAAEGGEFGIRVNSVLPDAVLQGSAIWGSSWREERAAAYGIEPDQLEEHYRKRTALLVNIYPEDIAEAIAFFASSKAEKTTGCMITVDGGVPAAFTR

Ca_RhaEW = target: T2, Ca_RhaEW (Chloroflexus aurantiacus, UniProt A9WGG0); assay: coupled NADH detection at […] nm and GC-MS of products; format: biochemical; settings: substrate made in situ from L-Rha by Ec_RhaA and Tm_RhaB, NAD+ 1.4 mM, Zn2+, pH 8, 30-70 C
T2 construct: gene Caur_2283; full-length, N-terminal His6 tag, expressed in E. coli, Ni-NTA purified
T2 sequence (A9WGG0 entry or part of it): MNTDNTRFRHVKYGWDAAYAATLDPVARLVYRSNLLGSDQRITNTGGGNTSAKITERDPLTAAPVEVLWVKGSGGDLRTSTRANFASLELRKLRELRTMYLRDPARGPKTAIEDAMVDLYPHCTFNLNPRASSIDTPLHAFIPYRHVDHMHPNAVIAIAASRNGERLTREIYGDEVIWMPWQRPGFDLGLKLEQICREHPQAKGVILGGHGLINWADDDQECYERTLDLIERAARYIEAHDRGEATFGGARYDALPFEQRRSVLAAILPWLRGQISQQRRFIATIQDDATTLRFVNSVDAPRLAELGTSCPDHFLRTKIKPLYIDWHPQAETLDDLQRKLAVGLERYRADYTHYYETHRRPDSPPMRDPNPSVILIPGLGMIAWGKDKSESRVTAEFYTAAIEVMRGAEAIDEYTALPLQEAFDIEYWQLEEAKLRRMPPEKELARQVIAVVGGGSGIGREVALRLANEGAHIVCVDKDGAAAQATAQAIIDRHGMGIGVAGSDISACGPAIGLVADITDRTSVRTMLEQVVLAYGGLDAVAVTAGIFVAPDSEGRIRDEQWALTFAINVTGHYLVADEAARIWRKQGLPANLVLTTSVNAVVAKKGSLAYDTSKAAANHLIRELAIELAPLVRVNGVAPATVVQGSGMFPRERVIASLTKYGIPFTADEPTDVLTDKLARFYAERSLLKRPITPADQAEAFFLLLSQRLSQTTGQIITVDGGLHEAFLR

RhaR = target: T3, RhaR (Chloroflexus aurantiacus, UniProt A9WGG7); assay: EMSA, loss of RhaR-DNA binding; settings: effector at 2 mM; RhaR 1 uM; pH 8.0; 50 C; L-rhamnulose made enzymatically from L-Rha by Ec_RhaA; Figure 5 legend prints L-rhamnose for this effect (apparent misprint)
T3 construct: gene Caur_2290

St_RhaZ = target: T4, St_RhaZ (Salmonella enterica, UniProt Q8ZKS2); assay: coupled NADH oxidation at […] nm; format: biochemical; settings: substrate made in situ by Ec_RhaA, Tm_RhaB and St_RhaD; NADH 0.25 mM; pH 7.5; 25 C; no dehydrogenase activity with NAD+
T4 construct: gene STM4044; full-length, N-terminal His6 tag, expressed in E. coli, Ni-NTA purified
T4 sequence (Q8ZKS2 1-382): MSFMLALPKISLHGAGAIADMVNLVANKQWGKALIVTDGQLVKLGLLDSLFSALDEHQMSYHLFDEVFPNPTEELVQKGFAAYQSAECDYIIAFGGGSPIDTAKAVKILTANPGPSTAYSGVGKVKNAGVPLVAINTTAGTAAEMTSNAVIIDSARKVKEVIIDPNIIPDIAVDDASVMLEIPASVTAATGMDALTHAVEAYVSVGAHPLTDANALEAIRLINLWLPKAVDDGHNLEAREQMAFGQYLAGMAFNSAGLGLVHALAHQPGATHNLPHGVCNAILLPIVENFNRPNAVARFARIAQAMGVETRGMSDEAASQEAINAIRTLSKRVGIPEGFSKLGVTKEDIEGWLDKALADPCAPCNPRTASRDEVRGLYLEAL
Source text: St_RhaZ was active under these conditions

RhaR (DeoR family) = target: T5, RhaR (DeoR family) (Chloroflexus aurantiacus J-10-fl, UniProt A9WGG7 1-260); assay: EMSA; RhaR 0.25-1 uM, no effector; poly(dI-dC); EMSA: 50 mM Tris-HCl pH 8.0, 150 mM NaCl, 5 mM MgCl2, 1 mM DTT (printed DDT), 0.05% NP-40, 2.5% glycerol, 1 ug poly(dI-dC), 0.2 nM DNA, 20 ul, 25 min at 50 C; 1.5% agarose gel at room temperature; settings: protein: recombinant; tags: His6-Smt3 (SUMO) N-terminal tag, cleaved with Ulp1; blunt
T5 sequence: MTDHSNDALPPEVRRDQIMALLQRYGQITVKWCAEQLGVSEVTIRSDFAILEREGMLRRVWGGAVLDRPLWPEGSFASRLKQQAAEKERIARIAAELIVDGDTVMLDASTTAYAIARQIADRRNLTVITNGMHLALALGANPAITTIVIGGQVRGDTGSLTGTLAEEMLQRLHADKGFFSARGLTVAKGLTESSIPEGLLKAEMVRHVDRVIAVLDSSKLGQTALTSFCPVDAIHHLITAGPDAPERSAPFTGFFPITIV

Molecule: C[C@H](O)[C@H](O)[C@@H](O)C(=O)COP(=O)(O)O [L-rhamnulose-1-P]
- coupled NADH detection at 340 nm (Bs_RhaEW): The Bs_RhaEW protein showed weak, but reproducible activity
- coupled NADH detection at 340 nm and GC-MS of products (Ca_RhaEW): Ca_RhaEW acts in vitro to convert L-rhamnulose-1-P to L-lactate and DHAP

Molecule: C[C@@H]1OC(O)(CO)[C@H](O)[C@H]1O (stereo partly drawn) [L-rhamnulose]
- EMSA, loss of RhaR-DNA binding (RhaR): L-rhamnulose abolished the specific DNA-binding ability of RhaR

Molecule: NC(=O)C1=CN([C@@H]2O[C@H](COP(=O)(O)OP(=O)(O)OC[C@H]3O[C@@H](n4cnc5c(N)ncnc54)[C@H](O)[C@@H]3O)[C@@H](O)[C@H]2O)C=CC1 [NADH]
- coupled NADH oxidation at 340 nm (St_RhaZ): with the exception of supplying NADH as the cofactor. St_RhaZ was active under these conditions

Molecule: NC(=O)c1ccc[n+]([C@@H]2O[C@H](COP(=O)(O)OP(=O)(O)OC[C@H]3O[C@@H](n4cnc5c(N)ncnc54)[C@H](O)[C@@H]3O)[C@@H](O)[C@H]2O)c1 [NAD^+]
- coupled NADH detection at 340 nm (Bs_RhaEW): the reduction of NAD^+ or oxidation of NADH was monitored
- coupled NADH detection at 340 nm and GC-MS of products (Ca_RhaEW; no product without NAD+, no activity with NADH): exclusion of NAD^+ which is an essential cofactor of L-lactaldehyde dehydrogenase

B1: rhaR upstream 48-bp fragment (38-bp RhaR operator) (dsDNA)
DNA 1: GGGGGTTCGTAAAATCTCGTAAGTACTTGACAAATCTTGAAAAGGGGG
DNA 2: CCCCCTTTTCAAGATTTGTCAAGTACTTACGAGATTTTACGAACCCCC
- binding result (RhaR (DeoR family)): binds
